From patent US20240293405A1, “(1H-PYRROLO[2,3-B]PYRIDIN-1-YL)PYRIMIDIN-2-YL-AMINO-PHENYL-ACRYLAMIDE INHIBITORS OF EGFR FOR USE IN THE TREATMENT OF BRAIN TUMORS” (Dana-Farber Cancer Institute, Inc., priority 2021, published 2024)
“And” between values parts separate entries of the source, which are not always exact repeats. Equal values may be shown once. “Also recorded” adds a separate entry of the source. Read-outs that look alike come from different tables or passages of the source.

What was measured:
human BCRP = target: T1, human BCRP (Homo sapiens, UniProt Q9UNQ0); test: BCRP inhibition (rosuvastatin transport, Caco-2 cells); format: in vitro ADME; settings: read-out: apparent IC50, rosuvastatin transport via human BCRP (converted)
T1 construct: endogenous in cells; host or cells: Caco-2 cells
T1 sequence (Q9UNQ0 whole entry): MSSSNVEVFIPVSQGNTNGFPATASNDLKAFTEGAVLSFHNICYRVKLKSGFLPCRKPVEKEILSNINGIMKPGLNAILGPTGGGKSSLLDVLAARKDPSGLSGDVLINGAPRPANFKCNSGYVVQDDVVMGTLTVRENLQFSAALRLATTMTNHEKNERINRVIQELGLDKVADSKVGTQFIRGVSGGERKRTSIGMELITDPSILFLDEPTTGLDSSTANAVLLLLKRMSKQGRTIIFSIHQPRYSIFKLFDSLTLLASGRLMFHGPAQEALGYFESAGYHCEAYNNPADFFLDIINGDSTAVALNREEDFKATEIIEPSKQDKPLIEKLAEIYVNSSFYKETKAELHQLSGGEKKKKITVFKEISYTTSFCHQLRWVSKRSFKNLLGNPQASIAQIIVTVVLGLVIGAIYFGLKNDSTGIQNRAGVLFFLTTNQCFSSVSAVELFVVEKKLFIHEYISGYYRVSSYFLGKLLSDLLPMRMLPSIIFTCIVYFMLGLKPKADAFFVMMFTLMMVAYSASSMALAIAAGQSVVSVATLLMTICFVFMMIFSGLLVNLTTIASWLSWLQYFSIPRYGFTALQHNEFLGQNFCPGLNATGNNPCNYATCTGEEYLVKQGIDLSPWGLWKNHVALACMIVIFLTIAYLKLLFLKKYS
From the text: (§1) Further understanding of DDI risk will await definition of Phase 2 doses and exposures.

[1] = CNS functional observational battery; format: in vivo; settings: rat, PO up to 100 mg/kg
[2] = target: ALK, EGFR and FLT3 mutants (Homo sapiens, UniProt P00533); test: Targeted kinase binding constants, mutant kinases (summary); settings: read-out: mutant kinase binding (Kd) for several EGFR single and double mutants
Chain of ALK, EGFR and FLT3 mutants (P00533 25-1210 limits assumed, change not shown): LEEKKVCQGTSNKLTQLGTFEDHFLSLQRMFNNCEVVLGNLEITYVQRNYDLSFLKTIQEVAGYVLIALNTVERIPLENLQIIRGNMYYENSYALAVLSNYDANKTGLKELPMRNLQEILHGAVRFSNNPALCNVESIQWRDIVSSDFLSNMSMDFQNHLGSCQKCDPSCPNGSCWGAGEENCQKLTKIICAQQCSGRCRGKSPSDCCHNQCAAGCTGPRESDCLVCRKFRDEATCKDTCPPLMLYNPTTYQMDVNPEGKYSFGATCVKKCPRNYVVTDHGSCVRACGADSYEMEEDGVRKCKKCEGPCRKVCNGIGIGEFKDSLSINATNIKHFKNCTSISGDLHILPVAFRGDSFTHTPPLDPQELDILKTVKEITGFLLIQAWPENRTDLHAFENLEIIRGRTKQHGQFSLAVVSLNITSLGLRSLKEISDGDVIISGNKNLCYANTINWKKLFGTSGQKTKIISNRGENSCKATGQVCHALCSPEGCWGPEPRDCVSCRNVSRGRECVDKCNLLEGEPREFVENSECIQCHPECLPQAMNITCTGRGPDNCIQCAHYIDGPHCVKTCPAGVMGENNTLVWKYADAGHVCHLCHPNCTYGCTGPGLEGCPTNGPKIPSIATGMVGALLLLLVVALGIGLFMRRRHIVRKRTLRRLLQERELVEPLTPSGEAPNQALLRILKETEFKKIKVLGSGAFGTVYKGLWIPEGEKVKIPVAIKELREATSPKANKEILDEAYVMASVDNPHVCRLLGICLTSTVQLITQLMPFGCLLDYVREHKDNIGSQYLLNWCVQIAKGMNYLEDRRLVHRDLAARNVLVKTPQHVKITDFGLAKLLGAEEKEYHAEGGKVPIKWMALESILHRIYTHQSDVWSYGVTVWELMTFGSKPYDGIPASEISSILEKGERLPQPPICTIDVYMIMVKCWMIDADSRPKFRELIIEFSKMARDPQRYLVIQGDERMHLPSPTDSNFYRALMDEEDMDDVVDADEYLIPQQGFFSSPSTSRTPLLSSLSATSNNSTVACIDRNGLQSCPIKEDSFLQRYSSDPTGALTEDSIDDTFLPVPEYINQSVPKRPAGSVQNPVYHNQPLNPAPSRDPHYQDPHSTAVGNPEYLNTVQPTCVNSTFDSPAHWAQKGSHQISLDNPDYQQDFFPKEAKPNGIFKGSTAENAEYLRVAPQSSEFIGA
Description: Compound 1 and Compound 2 (major metabolite) were evaluated in a panel of 468 human kinases and disease relevant mutant variants. Compound 1 and Compound 2 bound to few non-mutant kinases at <1% of control. […] While there is some variability between Compound 1 and Compound 2, it is clear that both compounds are very effective at binding to a large panel of mutant kinases. […] Binding constant to wild type EGFR was 4.9 nM.

[3] = Oral dog dose-range toxicity study; format: in vivo
Description: In the dog dose-range study, Compound 1 was given to male and female beagle dogs orally by gavage either once (30, 100, 600, 1000 mg/kg) or once daily for 14 days (30, 100, 300 mg/kg/day).
The HNSTD was estimated to be 100 mg/kg/day in this study.

CYP3A4-T = target: T2, CYP3A4-T (Homo sapiens, UniProt P08684); test: CYP450 inhibition, human liver microsomes; format: in vitro ADME
T2 construct: from tissue; host or cells: human liver microsomes
T2 sequence (P08684 whole entry): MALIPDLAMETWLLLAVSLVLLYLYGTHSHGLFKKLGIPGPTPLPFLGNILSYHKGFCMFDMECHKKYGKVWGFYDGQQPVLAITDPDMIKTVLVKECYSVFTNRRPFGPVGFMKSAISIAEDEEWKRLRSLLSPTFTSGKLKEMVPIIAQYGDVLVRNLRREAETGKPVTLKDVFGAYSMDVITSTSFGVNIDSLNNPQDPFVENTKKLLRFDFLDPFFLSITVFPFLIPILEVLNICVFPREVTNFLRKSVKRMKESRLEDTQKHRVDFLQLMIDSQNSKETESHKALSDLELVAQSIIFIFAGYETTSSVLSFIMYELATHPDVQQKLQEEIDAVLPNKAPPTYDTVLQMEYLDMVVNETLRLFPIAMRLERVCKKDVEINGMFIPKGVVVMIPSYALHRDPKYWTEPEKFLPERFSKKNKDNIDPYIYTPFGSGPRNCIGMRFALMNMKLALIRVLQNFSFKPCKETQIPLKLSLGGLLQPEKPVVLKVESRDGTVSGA
From the text: Metabolism, inhibition and induction were not observed with other CYPs. Potential DDI interactions exist with drugs that are inhibitors of CYP3A4-T or those metabolized by CYP3A4/3A5; these DDI risks will be better defined once there are human pharmacokinetics (PK) data.

EGFRvIII = EGFRvIII (Homo sapiens, UniProt P00533, DELINS30-297G); test: EGFRvIII phosphorylation in U251-EGFRvIII cells (western blot); format: cell-based; parameters: expressed in transfected cells; host or cells: U251 (human GBM cell line), retroviral transduction; settings: 20 hours, read-out: IC50 on EGFRvIII phosphorylation (pEGFRvIII1068)
Chain of EGFRvIII (P00533 with tags, fused parts or gaps DELINS30-297G): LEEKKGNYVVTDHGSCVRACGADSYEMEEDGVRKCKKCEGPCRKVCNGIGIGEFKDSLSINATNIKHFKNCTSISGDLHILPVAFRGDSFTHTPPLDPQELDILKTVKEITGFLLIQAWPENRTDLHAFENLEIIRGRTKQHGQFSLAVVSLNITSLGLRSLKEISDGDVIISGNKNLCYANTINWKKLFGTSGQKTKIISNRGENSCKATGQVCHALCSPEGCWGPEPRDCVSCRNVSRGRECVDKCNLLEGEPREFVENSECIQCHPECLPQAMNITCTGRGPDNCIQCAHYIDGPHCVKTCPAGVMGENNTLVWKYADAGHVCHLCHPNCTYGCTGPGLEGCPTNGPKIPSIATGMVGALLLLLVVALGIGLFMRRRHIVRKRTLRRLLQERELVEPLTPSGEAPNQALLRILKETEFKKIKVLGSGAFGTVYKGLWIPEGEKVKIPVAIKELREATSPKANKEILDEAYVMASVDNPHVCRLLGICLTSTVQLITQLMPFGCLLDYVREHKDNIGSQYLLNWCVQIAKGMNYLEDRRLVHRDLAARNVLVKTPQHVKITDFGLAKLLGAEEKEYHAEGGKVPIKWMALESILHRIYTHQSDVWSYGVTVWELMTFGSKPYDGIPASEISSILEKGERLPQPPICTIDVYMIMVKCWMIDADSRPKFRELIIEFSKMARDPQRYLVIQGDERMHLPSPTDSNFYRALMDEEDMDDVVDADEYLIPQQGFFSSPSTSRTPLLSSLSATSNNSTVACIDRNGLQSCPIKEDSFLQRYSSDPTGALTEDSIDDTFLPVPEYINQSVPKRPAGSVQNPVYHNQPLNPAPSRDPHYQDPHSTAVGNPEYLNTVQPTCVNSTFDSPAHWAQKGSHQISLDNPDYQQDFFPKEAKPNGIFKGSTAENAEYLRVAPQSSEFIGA
From the text: Anti-a-Tubulin antibody was purchased from Sigma.
In parallel, the conventional human GBM U251 cell line was used as a surrogate model for both in vitro and in vivo studies. U251 cells were engineered to stably express EGFRvIII (U251-EGFRvIII) via retroviral-mediated gene transfer.

[4] = Comparative metabolism and metabolic stability in hepatocytes; format: in vitro ADME, human, monkey, dog, rat and mouse
From the text: Compound 2 was a major demethylated active metabolite in all species and with the exception of a minor metabolite, M48 in human hepatocytes, all human metabolites were represented in the rat and/or dog, the toxicology species.

[5] = test system: H1975 cells: EGFR L858R-T790M; test: H1975 SQ lung tumor xenograft in NOD.SCID mice; format: in vivo; settings: H1975 lung tumor implants, oral
Description: (§2) Compound 1 was also evaluated in xenograft models of lung tumor cell lines harboring EGFR single and double mutations in the mouse.

[6] = H1975 SQ lung tumor xenograft in NOD.SCID mice; format: in vivo; settings: NOD.SCID, mouse, plasma; H1975 model, 4 hours post-dose, oral; read-out: plasma concentration at which anti-tumor activity was noted
Description: as §2

[7] = test system: H1975 cells (L858R/T790M); settings: Wang 2020, read-out: IC50, growth inhibition; cited from earlier work
[8] = test system: EGFRvIII, ERK1/2 and S6RP phosphorylation; test: Phosphorylation in CPEvIII neurosphere cultures (western blot); format: cell-based, mouse; settings: CPEvIII neurospheres, 1 day, dose-dependent
Description: FIG. 5B is the western blot analysis of primary mouse CPEvIII cells that were treated with Compound 1 for 1 day.
Western blot analysis was performed as described previously (Ni, J., et al. (2012). Cancer discovery 2, 425-433; Ni, J., et al. (2016). Nature medicine 22, 723-726; Ni, J., et al. (2017). Neurooncology 19, 22-30). Anti-pEGFR-1068 (#3777), anti-pEGFR-1173 (#4407), anti-EGFR (#4267), anti-pERK1/2 (#9101), anti-ERK1/2 (#9102), anti-S6RP (#2211), and anti-S6RP (#2217) antibodies were purchased from Cell Signaling Technology. Anti-a-Tubulin antibody was purchased from Sigma.
Neural stem cells (NSCs) from E14.5 embryonic mice (Cdkn2a-null; Ptenf/f) striata were isolated and cultured as previously described (Rietze, R. L., and Reynolds, B. A. (2006). Methods in enzymology 419, 3-23). NSCs were infected twice with adenovirus expressing Cre recombinase (AdCre; MOI50) (University of Iowa) to knock out floxed Pten. Cells were then transduced with retrovirus expressing EGFRvIII (pBabe-puro-EGFRvIII) (from Dr. Charles Stiles, DFCI) and selected with 1 μg/ml puromycin. The resulting cells (Cdkn2anull; Ptennull; EGFRvIII, denominated CPEvIII) can form a glioma after grafted into the mouse brain. Tumors were then isolated and mechanically dissociated for expansion in vitro and in vivo. […]

Caco-2 cells = test: Permeation and absorption in Caco-2 cells; format: in vitro ADME
From the text: as §1

[9] = PC-9 SQ lung tumor xenograft in NOD.SCID mice; format: in vivo; settings: mouse, plasma, PC-9 model, 4 hours post-dose, oral, read-out: plasma concentration at which anti-tumor activity was noted
Description: as §2

[10] = Skin toxicity in mice (visual observation); format: in vivo; settings: Compound 1 10-50 mg/kg/day vs osimertinib 10-25 mg/kg/day
From the text: . (osmertinib, FIG. 6A; Compound 1, FIG. 6B).

P-gp = target: T3, P-gp (Homo sapiens, UniProt P08183); test: P-glycoprotein inhibition (digoxin transport); format: in vitro ADME
T3 construct: expressed in transfected cells; host or cells: MDCKII-MDR1 cells
T3 sequence (P08183 whole entry): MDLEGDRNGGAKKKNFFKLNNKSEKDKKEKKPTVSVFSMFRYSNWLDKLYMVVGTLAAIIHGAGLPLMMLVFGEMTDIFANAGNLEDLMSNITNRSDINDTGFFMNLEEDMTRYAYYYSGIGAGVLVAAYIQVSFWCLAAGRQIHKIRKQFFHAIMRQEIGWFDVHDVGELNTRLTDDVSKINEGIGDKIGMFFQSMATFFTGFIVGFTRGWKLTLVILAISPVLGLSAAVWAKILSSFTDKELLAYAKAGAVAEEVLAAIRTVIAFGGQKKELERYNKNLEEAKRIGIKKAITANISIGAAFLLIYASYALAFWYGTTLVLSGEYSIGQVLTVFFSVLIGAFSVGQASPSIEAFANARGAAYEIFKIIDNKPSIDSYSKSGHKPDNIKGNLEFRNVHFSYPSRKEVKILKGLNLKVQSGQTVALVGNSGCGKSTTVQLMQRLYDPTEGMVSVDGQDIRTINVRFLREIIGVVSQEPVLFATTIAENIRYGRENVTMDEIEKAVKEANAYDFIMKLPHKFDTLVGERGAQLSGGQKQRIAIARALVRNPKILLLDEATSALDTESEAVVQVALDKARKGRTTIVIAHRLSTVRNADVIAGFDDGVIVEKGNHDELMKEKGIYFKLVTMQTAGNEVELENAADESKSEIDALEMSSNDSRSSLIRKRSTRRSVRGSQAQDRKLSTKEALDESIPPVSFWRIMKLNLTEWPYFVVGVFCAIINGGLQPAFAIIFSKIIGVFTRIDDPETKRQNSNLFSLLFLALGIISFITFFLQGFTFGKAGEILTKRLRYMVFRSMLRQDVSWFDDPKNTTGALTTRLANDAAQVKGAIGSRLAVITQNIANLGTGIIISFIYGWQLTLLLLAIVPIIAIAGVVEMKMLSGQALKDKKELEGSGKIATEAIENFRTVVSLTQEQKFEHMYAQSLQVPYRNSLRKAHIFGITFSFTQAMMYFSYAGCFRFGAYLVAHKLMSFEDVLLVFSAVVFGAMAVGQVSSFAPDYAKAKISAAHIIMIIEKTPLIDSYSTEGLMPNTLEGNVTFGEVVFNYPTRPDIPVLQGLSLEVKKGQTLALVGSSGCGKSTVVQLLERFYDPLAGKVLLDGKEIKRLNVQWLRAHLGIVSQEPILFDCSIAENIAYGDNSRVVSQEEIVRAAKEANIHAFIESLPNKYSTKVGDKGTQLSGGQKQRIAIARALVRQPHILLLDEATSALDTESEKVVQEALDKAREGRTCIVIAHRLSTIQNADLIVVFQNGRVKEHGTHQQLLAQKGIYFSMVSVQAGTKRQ
From the text: as §1

SMILES: C=CC(=O)Nc1cc(Nc2nccc(-n3ccc4cccnc43)n2)c(OC)cc1N(C)CCN(C)C [Compound 1, N-(5-((4-(1H-pyrrolo[2,3-b]pyridin-1-yl)pyrimidin-2-yl)amino)-2-((2-(dimethylamino)ethyl)(methyl)amino)-4-methoxyphenyl)acrylamide]
- IC50 (human BCRP): 3.02 µM
- CNS effects in functional observational battery [1]: no adverse CNS effects
- Kd [2]: < 0.001 µM
- tolerability of a single oral dose ([3]; 30 to 1000 mg/kg): well tolerated
- HNSTD ([3]; 14 days oral, estimated): 100 mg/kg/day
- IC50 (CYP3A4-T): 4.89 µM
- IC50 (EGFRvIII): 0.174 µM and 0.17 µM
- metabolic stability ([4]; hepatocytes, species comparison): greatest in human hepatocytes
- number of metabolites detected in hepatocytes ([4]; human, monkey, dog, rat and/or mouse hepatocytes): 22
- tumor response [5]: substantial tumor regression
- concentration at 4 h [6]: 800 ng/mL and 1.6 µM
- IC50 [7]: 0.00439 µM
- phosphorylation of EGFRvIII, ERK1/2 and S6RP [8]: markedly reduced phosphorylation; also recorded: Marked
- permeability in Caco-2 cells (Caco-2 cells): Moderate permeability
- substrate of efflux transporters (Caco-2 cells): not likely a transporter substrate; also recorded: not likely a substrate of efflux transporters; also recorded: not a likely substrate of efflux transporters
- substrate of efflux transporters (Caco-2 cells; listed as Compound 11): unlikely that Compound 11 is a substrate of efflux transporters; also recorded: not a substrate
- concentration at 4 h [9]: 1500 ng/mL and 3.1 µM
- skin toxicity (visual observation) [10]: Lower Skin Toxicity than Osimertinib
- P-gp inhibition (P-gp): No P-gp inhibition
- IC50 (P-gp; read-out: IC50, P-gp mediated transport of digoxin): > 30 µM
